Common to all, as to assay type: functional
Experiment [1] relates to Mycobacterium tuberculosis. Kind of experiment: Antitubercular activity against Mycobacterium tuberculosis H37Rv assessed as growth inhibition at >6.25 ug/ml by primary screen assay.
The subject of experiment [2] is Mycobacterium tuberculosis. Kind of experiment: Antitubercular activity against Mycobacterium tuberculosis H37Rv assessed as growth inhibition by primary screen assay.
Experiment [3] relates to Mycobacterium tuberculosis. As to the kind of experiment: Antitubercular activity against Mycobacterium tuberculosis H37Rv assessed as growth inhibition by secondary screen assay.
Experiment [4] relates to Mycobacterium tuberculosis. Kind of experiment: Antitubercular activity against Mycobacterium tuberculosis H37Rv assessed as growth inhibition at <6.25 ug/ml by primary screen assay.

Molecules are shown by their SMILES. ≈ marks a conversion by molar mass, not a printed value.

As to `Cc1ccc(-n2cc(/C=N/n3c(-c4cccc(Cl)c4)nc4ccccc4c3=O)c(-c3ccncc3)n2)cc1`, the “inhibition (INH)” value in experiment [1] is reported as 68%. Also, the MIC in experiment [2] was more than 6.25 µg/mL.

Regarding `Cc1ccc(-n2cc(/C=N/n3c(-c4ccc(Cl)cc4)nc4ccccc4c3=O)c(-c3ccncc3)n2)cc1`, the MIC was less than 3.12 µg/mL in experiment [3] and less than 6.25 µg/mL in experiment [2]. Further, the “inhibition (INH)” value in experiment [4] was 90%.

As to `COc1ccc(-c2nc3ccccc3c(=O)n2/N=C/c2cn(-c3ccc(C)cc3)nc2-c2ccncc2)cc1`, in experiment [1], the “inhibition (INH)” value was 59%. The MIC in experiment [2] was more than 6.25 µg/mL.

In the case of `Cc1ccc(-n2cc(/C=N/n3c(-c4ccc([N+](=O)[O-])cc4)nc4ccccc4c3=O)c(-c3ccncc3)n2)cc1`, the “inhibition (INH)” value in experiment [1] was found to be 67%. In experiment [2], the minimum inhibitory concentration (MIC) is more than 6.25 µg/mL.

For the compound `Cc1ccc(-n2cc(/C=N/n3c(-c4ccccc4[N+](=O)[O-])nc4ccccc4c3=O)c(-c3ccncc3)n2)cc1`, the “inhibition (INH)” value in experiment [1] turned out to be 73%. Moreover, the MIC in experiment [2] was more than 6.25 µg/mL.

On to `Cc1ccc(-c2nc3ccccc3c(=O)n2/N=C/c2cn(-c3ccc(C)cc3)nc2-c2ccncc2)cc1`, for which, in experiment [1], the “inhibition (INH)” value came to 67%. The MIC in experiment [2] is more than 6.25 µg/mL.

Regarding `Cc1ccc(-n2cc(/C=N/n3c(-c4ccccc4C)nc4ccccc4c3=O)c(-c3ccncc3)n2)cc1`, the figures for the MIC in experiment [3] and in experiment [2] were less than 3.12 µg/mL and less than 6.25 µg/mL, respectively. The “inhibition (INH)” value in experiment [4] was determined as 94%.

On to `Cc1ccc(-n2cc(/C=N/n3c(-c4cccc(C)c4)nc4ccccc4c3=O)c(-c3ccncc3)n2)cc1`, for which the “inhibition (INH)” value in experiment [1] turned out to be 70%. For the same compound, in experiment [2], the MIC is more than 6.25 µg/mL.

As to `COc1ccccc1-c1nc2ccccc2c(=O)n1/N=C/c1cn(-c2ccc(C)cc2)nc1-c1ccncc1`, the MIC in experiment [3] was less than 3.12 µg/mL; in experiment [2] it was less than 6.25 µg/mL. In addition, the “inhibition (INH)” value in experiment [4] came out at 93%.

On to `NNC(=O)c1ccncc1` [ISONIAZID], for which the results for the MIC in experiment [3] and in experiment [2] were 0.125 µg/mL (≈ 0.911 µM) and less than 6.25 µg/mL, respectively.

In the case of `Cc1ccc(-n2cc(/C=N/n3c(-c4cccc([N+](=O)[O-])c4)nc4ccccc4c3=O)c(-c3ccncc3)n2)cc1`, the MIC was less than 3.12 µg/mL in experiment [3] and less than 6.25 µg/mL in experiment [2]. Moreover, in experiment [4], the “inhibition (INH)” value was found to be 92%.

With `Cc1ccc(-n2cc(/C=N/n3c(-c4ccccc4Cl)nc4ccccc4c3=O)c(-c3ccncc3)n2)cc1`, the minimum inhibitory concentration (MIC) is less than 3.12 µg/mL in experiment [3] and less than 6.25 µg/mL in experiment [2]. For the same compound, in experiment [4], the “inhibition (INH)” value was determined as 96%.

Take `COc1cccc(-c2nc3ccccc3c(=O)n2/N=C/c2cn(-c3ccc(C)cc3)nc2-c2ccncc2)c1`: the “inhibition (INH)” value in experiment [1] turned out to be 64%. Besides, the MIC in experiment [2] was more than 6.25 µg/mL.

By MIC is commonly meant the least concentration at which growth counts as inhibited.

The values above are taken from ChEMBL document CHEMBL3046497, “Synthesis and antitubercular activity of novel pyrazolequinazolinone hybrid analogs” (2013).
